# Data reported in patent US7777077B2, “Dual-acting antihypertensive agents” (Theravance, Inc., priority 2007, dated 2010).
# Tests used:
# human AT1 receptor = molecular target: T1, human AT1 receptor (Homo sapiens, UniProt P30556); experiment: AT1 radioligand binding assay; settings: [Eu]AngII displacement, membranes of CHO-K1 cells expressing human AT1; read-out: pKi at the AT1 receptor (converted)
# T1 construct: expressed in transfected cells; membranes
# T1 sequence (P30556 1-359): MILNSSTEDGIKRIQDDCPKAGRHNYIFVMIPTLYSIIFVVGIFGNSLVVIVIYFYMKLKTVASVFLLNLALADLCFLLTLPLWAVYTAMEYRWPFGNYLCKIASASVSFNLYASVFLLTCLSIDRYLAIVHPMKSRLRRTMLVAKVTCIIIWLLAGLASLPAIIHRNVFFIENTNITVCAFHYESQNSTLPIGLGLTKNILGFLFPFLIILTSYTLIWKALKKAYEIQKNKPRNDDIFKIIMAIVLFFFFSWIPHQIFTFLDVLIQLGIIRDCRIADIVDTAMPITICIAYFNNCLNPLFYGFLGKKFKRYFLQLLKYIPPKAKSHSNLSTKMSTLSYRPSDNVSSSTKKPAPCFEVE
# Protocol: These in vitro assays were used to assess the ability of test compounds to bind to the AT1 and the AT2 receptors.
# Chinese hamster ovary (CHO-K1) derived cell lines stably expressing the cloned human AT1 or AT2 receptors, respectively, were grown in HAM's-F12 medium supplemented with 10% fetal bovine serum, 10 μg/ml penicillin/streptomycin, and 500 μg/ml geneticin in a 5% CO2 humidified incubator at 37° C. AT2 receptor expressing cells were grown in the additional presence of 100 nM PD123,319 (AT2 antagonist). When cultures reached 80-95% confluence, the cells were washed thoroughly in PBS and lifted with 5 mM EDTA. Cells were pelleted by centrifugation and snap frozen in MeOH-dry ice and stored at −80° C. until further use.
# For membrane preparation, cell pellets were resuspended in lysis buffer (25 mM Tris/HCl pH 7.5 at 4° C., 1 mM EDTA, and one tablet of Complete Protease Inhibitor Cocktail Tablets with 2 mM EDTA per 50 mL buffer (Roche cat.#1697498, Roche Molecular Biochemicals, Indianapolis, Ind.)) and homogenized using a tight-fitting Dounce glass homogenizer (10 strokes) on ice. The homogenate was centrifuged at 1000×g, the supernatant was collected and centrifuged at 20,000×g. […] Protein concentration of the membrane suspension was determined by the method described in Bradford (1976) Anal Biochem. 72:248-54. […]
# NEP enzyme = NEP enzyme (UniProt P08473); experiment: In vitro NEP enzyme inhibition assay; assay type: biochemical; settings: fluorogenic peptide substrate; human or rat NEP not given
# Protocol: The inhibitory activities of compounds at human and rat NEP and human ACE were determined using in vitro assays as described below.
# Rat NEP was prepared from the kidneys of adult Sprague Dawley rats. Whole kidneys were washed in cold PBS and brought up in ice-cold lysis buffer (1% Triton X-114, 150 mM NaCl, 50 mM Tris pH 7.5; Bordier (1981) J. Biol. Chem. 256:1604-1607) in a ratio of 5 mL of buffer for every gram of kidney. Samples were homogenized using a polytron hand held tissue grinder on ice. Homogenates were centrifuged at 1000×g in a swinging bucket rotor for 5 minutes at 3° C. The pellet was resuspended in 20 mL of ice cold lysis buffer and incubated on ice for 30 minutes. […] Protein concentrations were quantitated using a BCA detection system with BSA as a standard. […]
# The assays were performed in 384-well white opaque plates at room temperature using the respective fluorogenic peptides at a concentration of 10 μM in assay buffer (50 mM Tris/HCl at 25° C., 100 mM NaCl, 0.01% Tween-20, 1 μM Zn, 0.025% BSA). […] The rat NEP enzyme preparation was used at a concentration that yielded quantitative proteolysis of 3 μM of Mca-RRL within 20 minutes at room temperature.
# Assays were started by adding 25 μL of enzyme to 12.5 μL of test compound at 12 concentrations ([…]). […] Plates were read on a fluorometer with excitation and emission wavelengths set to 320 nm and 405 nm, respectively. […]
structure (smiles),measurement,setting,value
"CCCC(=O)N(CCNC(=O)C(CS)CC(C)C)Cc1ccc(-c2ccccc2-c2nnn[nH]2)cc1 (centres unmarked) [Example 1, 2-Mercaptomethyl-4-methylpentanoic Acid (2-Butyryl-[2′-(1H-tetrazol-5-yl)biphenyl-4-ylmethyl]aminoethyl)amide]",Ki,human AT1 receptor,< 100 nM
same,pIC50 for the NEP enzyme,NEP enzyme,greater than or equal to 7.0
